Laboratory results: patent US8609892B2 (Eli Lilly and Company, priority 2004, dated 2013)

Molecular target: cloned human glucagon receptor (Homo sapiens (Human), UniProt P47871)
Experiment: Glucagon Receptor (hGlucR) Binding Assay
Conditions: I-125 glucagon competition, SPA, 293HEK membranes, Cheng-Prusoff
Protocol: This plasmid DNA was transfected into 293 HEK cells and selected with 200 ug/mL Hygromycin.
Crude plasma membranes are prepared using cells from suspension culture. The cells are lysed on ice in hypotonic buffer containing 25 mM Tris HCL, pH 7.5, 1 mM MgCl2, DNAse1, 20 u/mL, and Roche Complete Inhibitors-without EDTA. The cell suspension is homogenized with a glass dounce homogenizer using a Teflon pestle for 25 strokes. The homogenate is centrifuged at 4 degrees C. at 1800×g for 15 mins. The supernate is collected and the pellet is resuspended in hypotonic buffer and rehomogenized. The mixture is centrifuged at 1800×g for 15 mins. The second supernate is combined with the first supernate. The combined supernates are recentrifuged at 1800×g for 15 mins to clarify. The clarified supernate is transferred to high speed tubes and centrifuged at 25000×g for 30 minutes at 4 degrees C. The membrane pellet is resuspended in homogenization buffer and stored as frozen aliquots at −80 degree C. freezer until needed.
The specific activity is 2200 Ci/mmol.
The binding buffer contains 25 mM Hepes, pH 7.4, 2.5 mM CaCl2, 1 mM MgCl2, 0.1% fatty acid free BSA, (ICN), 0.003% tween-20, and Roche Complete Inhibitors without EDTA. […] Test compounds are dissolved in DMSO and serially diluted in DMSO. […] Plates are read with a MicroBeta after 14 hours of settling time at room temp. […]

Sequence of cloned human glucagon receptor (P47871 26-477): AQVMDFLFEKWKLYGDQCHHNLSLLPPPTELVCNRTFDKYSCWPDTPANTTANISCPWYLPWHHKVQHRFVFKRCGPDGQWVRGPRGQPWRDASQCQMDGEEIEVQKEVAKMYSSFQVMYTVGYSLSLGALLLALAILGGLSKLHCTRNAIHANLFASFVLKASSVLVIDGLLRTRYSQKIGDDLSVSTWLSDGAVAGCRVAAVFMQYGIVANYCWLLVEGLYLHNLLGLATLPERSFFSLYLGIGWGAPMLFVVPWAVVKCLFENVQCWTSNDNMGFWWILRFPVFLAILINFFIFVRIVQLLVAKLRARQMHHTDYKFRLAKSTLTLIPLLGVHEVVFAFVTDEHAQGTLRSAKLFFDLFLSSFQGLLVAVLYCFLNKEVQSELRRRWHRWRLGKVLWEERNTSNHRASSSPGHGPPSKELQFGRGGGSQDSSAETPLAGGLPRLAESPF

Structure (SMILES) | Ki [nM]
Cc1ccc(-c2ccc(SC(CC(C)C)c3ccc(C(=O)NCCC(=O)O)cc3)cc2)cc1C (centres unmarked) | 265
CCCC(Oc1ccc(-c2ccc(CC(C)C)cc2)nc1)c1ccc(C(=O)NCCC(=O)O)cc1 (centres unmarked) | 254
